Measured values as given in ChEMBL document CHEMBL1201862, “PubChem BioAssay data set” (2004).
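Step 1: Grow cells in 96-well plates. Step 2: Expose to compound for 48 hours at 5 concentrations. Step 3: Interpolate endpoints linearly; if unreached, use highest concentration. GI50 marks 50% less growth.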 Active and inactive are the calls of the source. Rule as the data show it: active = GI50 up to about 1.1 µM and inactive = higher.

Experiments:
Assay in all cases: inhibition of tumour cell growth, NCI panel, 48 h
UACC-62 = system: UACC-62
A498 = system: A498
NCI-H226 = system: NCI-H226
CAKI-1 = system: CAKI-1
IGROV-1 = system: IGROV-1
UO-31 = system: UO-31
786-0 = system: 786-0
HOP-62 = system: HOP-62
COLO 205 = system: COLO 205
MOLT-4 = system: MOLT-4
HCT-116 = system: HCT-116
HCT-15 = system: HCT-15
SF-268 = system: SF-268
OVCAR-5 = system: OVCAR-5
NCI-H522 = system: NCI-H522
ACHN = system: ACHN
EKVX = system: EKVX

Row | SMILES | GI50 (UACC-62) | GI50 (A498) | GI50 (NCI-H226) | GI50 (CAKI-1) | GI50 (IGROV-1) | GI50 (UO-31) | GI50 (786-0) | GI50 (HOP-62) | GI50 (COLO 205) | GI50 (MOLT-4) | GI50 (HCT-116) | GI50 (HCT-15) [µM] | GI50 (SF-268) | GI50 (OVCAR-5) | GI50 (NCI-H522) | GI50 (ACHN) | GI50 (EKVX)
1 | COc1ccc(/C(=N/NC(N)=O)C2(O)C(=O)Nc3ccc([N+](=O)[O-])cc32)cc1 (stereo not given) | 20 µM (inactive) | 29.2 µM (inactive) | 45.7 µM (inactive) | 24.2 µM (inactive) | 31 µM (inactive) | 20.5 µM (inactive) | 15.7 µM (inactive) | 28.2 µM (inactive) | 23 µM (inactive) | 19.6 µM (inactive) | 14.9 µM (inactive) | 20.7 | 18.5 µM (inactive) | 31.5 µM (inactive) | 21.8 µM (inactive) | 16.6 µM (inactive) | > 100 µM (inactive)
2 | O=C1OC(CC(=O)c2ccc(Cl)cc2)C(Cl)=C1Cl (stereo not given) | > 100 µM (inactive) | > 100 µM (inactive) | > 100 µM (inactive) | > 100 µM (inactive) | > 100 µM (inactive) | > 100 µM (inactive) | > 100 µM (inactive) | > 100 µM (inactive) | > 100 µM (inactive) | 39.2 µM (inactive) | > 100 µM (inactive) | > 100 | > 100 µM (inactive) | > 100 µM (inactive) | 94.8 µM (inactive) | > 100 µM (inactive) | > 100 µM (inactive)
3 | COc1nc(=O)n(COC(CO)CN2C(=O)c3ccccc3C2=O)cc1Cc1cccc(OCc2ccccc2)c1 (stereo not given) | 14.6 µM (inactive) | – | 17.4 µM (inactive) | – | 24.8 µM (inactive) | 16.3 µM (inactive) | > 10 µM (inactive) | – | 19.8 µM (inactive) | 21.2 µM (inactive) | 29.4 µM (inactive) | 28.2 | – | – | – | 23.7 µM (inactive) | 33.8 µM (inactive)
4 | CCOC(=O)Cn1c(=O)n(C)c(=O)c2[nH]cnc21 | > 100 µM (inactive) | > 100 µM (inactive) | – | > 100 µM (inactive) | > 100 µM (inactive) | > 100 µM (inactive) | > 100 µM (inactive) | > 100 µM (inactive) | > 100 µM (inactive) | > 100 µM (inactive) | > 100 µM (inactive) | > 100 | > 100 µM (inactive) | – | > 100 µM (inactive) | > 100 µM (inactive) | > 100 µM (inactive)
5 | COc1cccc(Cc2c3cc(OC)ccc3cc[n+]2C)c1 | – | > 100 µM (inactive) | – | > 100 µM (inactive) | – | > 100 µM (inactive) | > 100 µM (inactive) | > 100 µM (inactive) | – | > 100 µM (inactive) | – | > 100 | 36.2 µM (inactive) | > 100 µM (inactive) | 22.9 µM (inactive) | > 100 µM (inactive) | > 100 µM (inactive)
6 | C=C=C[P+](c1ccccc1)(c1ccccc1)c1ccccc1 | – | 93.8 µM (inactive) | – | – | 31.5 µM (inactive) | 35.2 µM (inactive) | 5.02 µM (inactive) | 53.1 µM (inactive) | 2.57 µM (inactive) | 2.6 µM (inactive) | 3.37 µM (inactive) | 11.5 | 15.3 µM (inactive) | – | 2.24 µM (inactive) | 14.5 µM (inactive) | –
7 | CC12CCC(=O)N1[C@@H](c1ccccc1)[C@@H](c1ccccc1)O2 (stereo not given in full) | 42.5 µM (inactive) | > 100 µM (inactive) | > 100 µM (inactive) | > 100 µM (inactive) | > 100 µM (inactive) | > 100 µM (inactive) | > 100 µM (inactive) | > 100 µM (inactive) | > 100 µM (inactive) | > 100 µM (inactive) | > 100 µM (inactive) | > 100 | > 100 µM (inactive) | > 100 µM (inactive) | > 100 µM (inactive) | > 100 µM (inactive) | –
8 | Cc1cc(=O)n2c3c(c4c(cc13)c(CO)cc(=O)n4C)OC2 | 12.5 µM (inactive) | 14.6 µM (inactive) | 5.22 µM (inactive) | 30.7 µM (inactive) | 34.8 µM (inactive) | 7.69 µM (inactive) | 12.6 µM (inactive) | 13 µM (inactive) | 16.5 µM (inactive) | – | 4.45 µM (inactive) | – | 8.18 µM (inactive) | 16.5 µM (inactive) | 4.94 µM (inactive) | 9.57 µM (inactive) | 64.4 µM (inactive)
